Measurements as given in patent publication US20130071897A1, “METHOD FOR CONTROLLING UNDESIRABLE BYPRODUCTS FORMATION CAUSED BY CONTAMINATING ORGANISMS IN THE PRODUCTION OF ETHANOL FROM SYNGAS” (COSKATA, INC., priority 2011, published 2013).

Legend:
[1] = system: acyl-CoA dehydrogenases; assay: In vitro acyl-CoA dehydrogenase ferrocenium assay with C. tyrobutyricum cell-free extract; type: biochemical; details: 0.5 to 10 mM compound; rate of ferrocenium reduction at 300 nm
Experimental: Lehman, et al., in An Acyl-Coenzyme A Dehydrogenase Assay Utilizing the Ferricenium Ion, Analytical Biochemistry 186, pages 280-284 (1990), disclose an in vitro assay screening technique for acyl-CoA dehydrogenases for determining enzyme deficiencies in children. An adaptation of this technique was explored as a potential screening method for ascertaining potential butyrogen inhibitors. An aqueous assay liquor is prepared such that each 1 milliliter sample contains 50 mM of TrisHCl buffer (pH 7.6); 0.05 mM of butyryl-CoA; 5 micromoles of FAD (flavin adenine dinucleotide) and 0.4 mM of ferrocenium. Whole cells of C. tyrobutyricum are lysed and are added to the assay liquor. […] The abbreviation mM stands for millimolar. To assure metabolic consistency among the samples a master batch of C. tyrobutyricum is prepared and harvested at the early log growth stage (approximate O.D. of between about 0.5 and 0.7). The master batch fermentation broth is centrifuged and rinsed with 50 mM TrisHCl buffer (pH 7.6), centrifuged and reconstituted with 50 mM TrisHCl buffer (pH 7.6) to be 10 times more concentrated than the original master batch. Aliquots of about 0.5 milliliter are placed into cryogenic vials (about 1.8 milliliter capacity) and frozen at −80° C. until needed. When needed, a vial is placed in an anoxic Coy chamber and allowed to thaw to room temperature. Once thawed, the cells are added to a 15 mL centrifuge tube and diluted with 0.5 mL of a 2 mg/mL solution of lysozyme (purchased from Aldrich) in 50 mM Tris-HCl (final concentration of lysozyme is about 1 mg/mL). The centrifuge tube is inverted 5 times, removed from the Coy chamber and allowed to incubate at 37° C. for 30 minutes. […] The centrifuge tube is vortexed in the Coy chamber for about 30 seconds, removed from the chamber and centrifuged for 15 minutes at 4000 rpm and 4° C. The tube is returned to the chamber and the cell-free extract (supernatant) is used to prepare the above described samples. The samples are analyzed at various times by absorbance spectroscopy at 300 nm using a Thermo Scientific Evolution 300 UV/Vis spectrophotometer with a 7-cuvette carousel and Starna quartz cuvettes with a septum cap to determine the amount of reduction of ferrocenium. The sample is at laboratory temperature and is maintained under anaerobic conditions. Typically, the absorbance is measured over a period of about 10 to 20 minutes which is sufficient time for the absorbance to stop changing. A linear slope of the rate of change in absorbance during the period that the absorbance is changing is determined using Microsoft Excel® 2010 linear regression to generate a straight line from the data points. The more gradual the slope, the better inhibition because the enzyme is slower at reducing the ferrocenium in the assay sample. A dose-response curve is then determined for each compound by plotting the linear slope against the respective compound concentration. A linear slope is then determined for each compound using Microsoft Excel® 2010 linear regression to generate a straight line from the data points. The steeper the dose-response slope, the better the inhibition because the increased concentration of the compound causes more of a difference in enzyme activity. The dose-response slope generally has a broad standard of deviation due to experimental imprecision and slope determinations.

[2] = system: Clostridium tyrobutyricum; assay: Balch tube batch growth of strict butyrogen Clostridium tyrobutyricum on fructose, optical density; type: cell-based; details: added 21 h after inoculation
Experimental: Similar experiments were conducted to make a preliminary determination as to which of the crotonate and crotonate-like compounds would act as butyrogen retardants. For this purpose the selected compounds were tested again in a series of batch experiments to determine the growth response of butyrogens to the presence of the compound at varying concentrations. The batch experiments were all conducted by anoxically filling a 20 ml Balch tube with 5 ml of a fermentation medium having the composition given in Tables 2 and 3. The media included 0.5 v/v final concentration of a fructose substrate. For each of the crotonate concentrations tested, duplicate test tubes were prepared.
Each tube was inoculated with 0.5 ml seed culture inoculum of the strict butyrogen Clostridium tyrobutyricum. The tubes were maintained at a temperature of 37° C. Twenty one hours after the inoculation of the tube with the bacteria, the different compounds from Table 1 were added to different tubes in the amounts indicated in Table 6. This was at a time of early to mid-log phase growth for the bacteria. Each fermentation of the bacteria in the media at the different concentration of crotonate derivatives were allowed to progress and were monitored to determine the bacteria growth at selected intervals of time varying from approximately 20 hours to 54 hours. Growth at the intervals was measured by reading the optical density (OD) of the fermentation liquid. Optical density was measured as described in Example 1. The ability of a tube fermentation at a particular concentration of crotonate derivative to reach a predetermined optical density was recorded in Table 6. Table 6 indicates the presence of bacterial growth to an OD of approximately 1.8 or above with a “+”, and to an optical density in a range of 0.7 to 1.5 as a “+/−”, and indicates the failure of bacterial growth to reach an optical density of approximately 0.7 as a “−”.

[3] = system: C. autoethanogenum; assay: Balch tube batch growth of homoacetogen C. autoethanogenum on fructose, optical density; type: cell-based; details: added 21 h after inoculation
Experimental: These compounds were first tested to determine their effect on a known homoacetogen. Each compound was tested in a series of batch experiments to determine the growth response of a homoacetogen to the presence of the compound at varying concentrations. The batch experiments were all conducted by anoxically filling a Balch tube with 5 ml of a fermentation medium having the composition given in Tables 2 and 3. To expedite results, these batch experiments used fructose as the growth nutrient source for bacteria. Thus, the media included a 5 g/L of fructose.
Each tube was inoculated with 0.5 ml of the same strain of C. autoethanogenum bacteria seed culture inoculum. The tubes were maintained at a temperature of 37° C. Twenty one hours after the inoculation of the tube with the bacteria, the different crotonate derivatives from Table 1 were added to different tubes in the amounts indicated in Table 4 This was at a time of early to mid-log phase growth for the bacteria. Each fermentation of the bacteria in the media at the different concentration of crotonate derivatives were allowed to progress and were monitored to determine the bacteria growth at selected intervals of time varying from approximately 20 hours to 190 hours. Growth at the intervals was measured by reading the optical density (OD) of the fermentation liquid. Optical density was measured using a Spectronic Spec 20 (Thermo Spectronic) at a wavelength of 600 nm. The OD of the Balch tube culture was measured directly in the tube using absorbance mode on the Spec 20 machine. The machine was set to zero absorbance by first measuring and adjusting the setting to zero absorbance using media only as a blank. This process was repeated at each indicated time point throughout the experiment. The ability of a tube fermentation at a particular concentration of crotonate derivative to reach a predetermined optical density was recorded in Table 4. Table 4 indicates the presence of bacterial growth to an OD of approximately 2 or above with a “+”, and to an optical density in a range of 0.5 to 1.5 as a “+/−”, and indicates the failure of bacterial growth to reach an optical density of approximately 0.5 as a “−”.

[4] = system: C. autoethanogenum; assay: Toxicity to C. autoethanogenum by batch fermentation using syngas substrate, optical density; type: cell-based, Clostridium autoethanogenum; details: for O.D. Response of Various Inhibitors on C. autoethanogenum: Table 21, one value per compound; for O.D. Response to Various Inhibitors: duplicates A and B, amount not given
Experimental: In this example various crotonate-like compounds on are evaluated for toxicity to C. autoethanogenum by batch fermentation using syngas substrate. The batch fermentations are conducted by anoxically filling 100 mL serum bottles with 10 mL of media having the composition given in Tables 12 and 13. Duplicate runs are conducted for each concentration. The compounds are: • C-1 Ethyl 4,4,4-trifluoro-3-(trifluoromethyl)crotonate • C-4 4,4,4-Trifluorocrotonamide • C-9 Ethyl 4,4,4-Trifluoro-3-(amino)crotonate • C-18 3 trifluoromethyl-4-methoxybenzoate.
Each bottle is inoculated with 1.0 mL of seed culture inoculum from an active fermenter using syngas substrate and containing Clostridium autoethanogenum, which inoculum has an OD of about 4.92 (which upon a 10 times dilution provides a starting OD for the fermentation of about 0.49). The bottles are gased with syngas to about 100 kilopascals and maintained at a temperature of 37° C. The bottles are regassed with syngas every 8 to 12 hours. The syngas has the approximate composition set forth in Examples 6 to 10. Twenty four hours after inoculation of the bottles with the bacteria, the compounds are added to different bottles as a solution in 50 μL of N-methylpyrrolidone in the amounts indicated in Tables 20 and 21. The fermentation process is allowed to progress at 37° C. At selected intervals of time, bacterial growth is measured by reading the OD of the fermentation liquid using a Thermo Spectronic Genesys 20 spectrophotometer. Optical density is measured by anoxically removing an aliquot of fermentation liquid and adding it to a disposable cuvette. OD's ranging between 0.01 and 0.4 are measured using fermentation liquid directly, while OD's greater than 0.4 are measure after performing a 1/10 dilution with water.

[5] = 0 Hours, added 24 h after inoculation
[6] = 2.5 Hours, added 24 h after inoculation
[7] = 6.5 Hours, added 24 h after inoculation
[8] = 24.5 Hours, added 24 h after inoculation

NC(=O)c1ccc(F)c(C(F)(F)F)c1 [3-Trifluoromethyl-4-fluorobenzamide]
Dose-Response Slope [1]: 5

O=C(O)/C=C/C(F)(F)F [G, 4,4,4-trifluorocrotonic acid]
Optical density valuation of C. tyrobutyricum ([2]; 100 ppm(m)): + (bacterial growth to an OD of approximately 1.8 or above)
Optical density valuation of C. tyrobutyricum ([2]; 500 ppm(m)): + (bacterial growth to an OD of approximately 1.8 or above)
Optical density valuation of C. tyrobutyricum ([2]; 1000 ppm(m)): + (bacterial growth to an OD of approximately 1.8 or above)
Optical density valuation of C. autoethanogenum ([3]; 10 ppm(m)): + (bacterial growth to an OD of approximately 2 or above)
Optical density valuation of C. autoethanogenum ([3]; 100 ppm(m)): + (bacterial growth to an OD of approximately 2 or above)
Optical density valuation of C. autoethanogenum ([3]; 500 ppm(m)): + (bacterial growth to an OD of approximately 2 or above)
Optical density valuation of C. autoethanogenum ([3]; 1000 ppm(m)): +/− (to an optical density in a range of 0.5 to 1.5)
Optical density valuation of C. autoethanogenum ([3]; 5000 ppm(m)): − (failure of bacterial growth to reach an optical density of approximately 0.5)
Optical density valuation of C. autoethanogenum ([3]; 10000 ppm(m)): − (failure of bacterial growth to reach an optical density of approximately 0.5)

CCOC(=O)c1ccccc1C(F)(F)F [Ethyl 2-(trifluoromethyl)benzoate]
Dose-Response Slope [1]: 8

3 trifluoromethyl-4-methoxybenzoate [Compound C-18]
O.D. Response of Various Inhibitors on C. autoethanogenum [4, 5]: 0.49
O.D. Response of Various Inhibitors on C. autoethanogenum [4, 6]: 0.44
O.D. Response of Various Inhibitors on C. autoethanogenum [4, 7]: 0.44
O.D. Response of Various Inhibitors on C. autoethanogenum [4, 8]: 1.16
O.D. Response of Various Inhibitors on C. autoethanogenum ([4]; 30.5 Hours): 1.30
O.D. Response of Various Inhibitors on C. autoethanogenum ([4]; 47.5 Hours): 1.74
O.D. Response of Various Inhibitors on C. autoethanogenum ([4]; 56 Hours): 1.88
O.D. Response to Various Inhibitors [4, 5]: 0.49
O.D. Response to Various Inhibitors [4, 6]: 0.47
O.D. Response to Various Inhibitors ([4]; 2.5 Hours, added 24 h after inoculation, listed as C-19): 0.41
O.D. Response to Various Inhibitors [4, 7]: 0.44
O.D. Response to Various Inhibitors [4, 8]: 1.15
O.D. Response to Various Inhibitors ([4]; 24.5 Hours, added 24 h after inoculation, listed as C-19): 1.18
O.D. Response to Various Inhibitors ([4]; 30.5 Hours, added 24 h after inoculation): 1.32
O.D. Response to Various Inhibitors ([4]; 30.5 Hours, added 24 h after inoculation, listed as C-19): 1.28
O.D. Response to Various Inhibitors ([4]; 47.5 Hours, added 24 h after inoculation): 1.73
O.D. Response to Various Inhibitors ([4]; 47.5 Hours, added 24 h after inoculation, listed as C-19): 1.75

COc1ccc(C(N)=O)cc1C(F)(F)F [3-Trifluoromethyl-4-methoxybenzamide]
Dose-Response Slope [1]: 12

O=C(O)c1cccc(C(F)(F)F)c1 [3-(Trifluoromethyl)benzoate]
Dose-Response Slope [1]: 6

CCOC(=O)/C=C(/C)N [H, ethyl 3-aminocrotonate]
Optical density valuation of C. autoethanogenum ([3]; 10 ppm(m)): + (bacterial growth to an OD of approximately 2 or above)
Optical density valuation of C. autoethanogenum ([3]; 100 ppm(m)): + (bacterial growth to an OD of approximately 2 or above)
Optical density valuation of C. autoethanogenum ([3]; 500 ppm(m)): + (bacterial growth to an OD of approximately 2 or above)
Optical density valuation of C. autoethanogenum ([3]; 1000 ppm(m)): + (bacterial growth to an OD of approximately 2 or above)
Optical density valuation of C. autoethanogenum ([3]; 5000 ppm(m)): + (bacterial growth to an OD of approximately 2 or above)
Optical density valuation of C. autoethanogenum ([3]; 10000 ppm(m)): + (bacterial growth to an OD of approximately 2 or above)
